“Also recorded” adds a separate entry of the source.
Legend:
[1] = test system: bovine brain microvessel endothelial cell (BBMEC) monolayers; assay: Permeability of confluent BBMEC monolayers (FDX-3000 flux); type: cell-based; settings: for effect on BBMEC permeability in words: 0.1, 1 and 10 uM; for onset of permeability effect: earliest time point tested 15 min
Protocol: The permeability effects of LPA and S1P were examined in various microvessel endothelial cell preparations. […] The BBMECs and the PBMEC were seeded (50,000 cells/cm2) on collagen coated, fibronectin treated, 6-well Transwell polycarbonate membrane inserts (0.4 um pore/24 mm diameter). The culture media consisted of: 45% minimum essential medium eagle (MEM), 45% Ham's P 12 nutrient mix, 10 mM HEPES, 13 mM sodium bicarbonate, 50 ug/ml gentamicin, 10% equine serum, 2.5 ug/ml amphotericin B, and 100 ug/ml heparin. The cell cultures were grown in a humidified 37° C. incubator with 5% CO2. The media was replaced every other day, and the BBMEC and PBMEC monolayers were used after reaching confluency (approximately 11-14 days).
Lyophilized LPA and S1P was purchased as lyophilized powder and was reconstituted into a 10 mM stock solution using 0.25% fatty acid-free bovine serum albumin (BSA) in assay buffer and kept at −20° C. until used. Working solutions of the phospholipids and C5a were prepared by diluting in assay buffer (0.25% BSA in the assay buffer).
Permeability studies were performed on confluent BBMEC and PBMEC, monolayers at 370 C. All the cells were pretreated with assay buffer for 30 minutes at 37° C. The control group was treated with assay buffer (0.25% BSA [fatty acid free]). For these studies, 1.5 ml of assay buffer was added to the lumina] (apical) side of the monolayer and 2.5 ml of assay buffer was added to the ablumenal (basolateral) side of the monolayer. Treatment groups received either LPA (0.1, 1, and 10 uM) or S1P (0.1, 1, 10 uM), alone and in combination, on both sides of the inserts. Permeability across the cell monolayers was determined by adding 10 uM fluorescein-labeled dextran (FDX-3000; MW 3000) to the donor (apical) compartment. Samples (100 ul) were removed from the receiver (basolateral) compartment at various times (0, 15, 30, 60 and 90 minutes). Samples (100 ul) were also taken from the donor compartment at the start (time 0) and conclusion (90 min) of the experiment. The concentration of FDX-3000 in the donor and receiver samples was measured spectrofluorometrically using a Shimadzu RFU5000 spectrofluorometer (Shimadzu Scientific Instruments, Columbia, Md., USA) with Ex (7 v) at 488 nm and Em (2 k.) at 510 nm. Permeability was expressed as the percent transfer of the fluorescent marker across the monolayers. The percent transfer was determined by dividing the cumulative concentration in the receiver compartment by the original concentration in the donor compartment at time zero. Permeability coefficients were calculated from the following formula:
V=volume of receiver chamber SA=surface area of cell monolayer Cd=conc of marker in the donor at time 0 Cr=the cumulative conc of marker in the receiver at the sample at time T

BBMEC monolayers = assay: Polarity studies: apical or basolateral application on BBMEC monolayers; type: cell-based, bovine
Protocol: (§1) The permeability effects of LPA and S1P were examined in various microvessel endothelial cell preparations. Primary bovine and porcine brain microvessel endothelial cells (BBMEC and PBMEC, respectively) were collected from the gray matter of fresh cow and pig cerebral cortices using a combination of enzymatic digestion and centrifugal separation methods previously described. The BBMECs and the PBMEC were seeded (50,000 cells/cm2) on collagen coated, fibronectin treated, 6-well Transwell polycarbonate membrane inserts (0.4 um pore/24 mm diameter). The culture media consisted of: 45% minimum essential medium eagle (MEM), 45% Ham's P 12 nutrient mix, 10 mM HEPES, 13 mM sodium bicarbonate, 50 ug/ml gentamicin, 10% equine serum, 2.5 ug/ml amphotericin B, and 100 ug/ml heparin. […]
For studies examining the functional polarity of LPA and S1P […] of the phospholipids were applied to either the apical or basolateral side of confluent brain microvessel endothelial cell monolayers. There was 30 min AB pretreatment followed by treatment with either LPA and S1P on either apical and/or basolateral side and the flux of FDX-3000 across the monolayer was measured. Permeability across the cell monolayers was determined by adding 10 uM fluorescein-labeled dextran (FDX-3000; MW 3000) to the donor compartment. […] Samples were analyzed as described above.

blood-brain barrier [2] = type: in vivo, mouse; settings: 15 minutes, mice
Protocol: FIG. 12. Adult female Balb/c mice were anesthetized with ketamine xylazine cocktail, and given a bolus i.v. (tail vein) injection of the near infrared fluorescent dye, rhodamine 800 (3.2 μmol/kg) either alone or in the presence of LPA (1.0 mg/kg) or the combination of LPA and S1P (0.1 mg/kg). Mice were sacrificed at 15 minutes following injection of rhodamine 800 and following perfusion with formalin through cardiac puncture, the brain was removed and sliced (3 mm) coronally. The appearance of rhodamine 800 was visualized using an Odyssey near infrared imaging system. […] The rhodamine 800 is confined primarily to the cerebral spinal fluid present in the ventricles (the small bright regions observed in the various brain slices). […] This is evident by the intense bright fluorescence of the brain slices in the LPA treated mouse.

[3] = test system: porcine brain microvessel endothelial cells (PBMEC); assay: Permeability of porcine BMEC monolayers (FDX-3000 flux); type: cell-based; settings: LPA 0.1, 1 and 10 uM
Protocol: as §1, with “diameter).” for “diameter). The culture media consisted of: 45% minimum essential medium eagle (MEM), 45% Ham's P 12 nutrient mix, 10 mM HEPES, 13 mM sodium bicarbonate, 50 ug/ml gentamicin, 10% equine serum, 2.5 ug/ml amphotericin B, and 100 ug/ml heparin.”
Permeability studies were performed on confluent BBMEC and PBMEC, monolayers at […]. […] Permeability across the cell monolayers was determined by adding 10 uM fluorescein-labeled dextran (FDX-3000; MW 3000) to the donor (apical) compartment. […] The concentration of FDX-3000 in the donor and receiver samples was measured spectrofluorometrically using a Shimadzu RFU5000 spectrofluorometer (Shimadzu Scientific Instruments, Columbia, Md., USA) with Ex (7 v) at 488 nm and Em (2 k.) at 510 nm. Permeability was expressed as the percent transfer of the fluorescent marker across the monolayers. The percent transfer was determined by dividing the cumulative concentration in the receiver compartment by the original concentration in the donor compartment at time zero. Permeability coefficients were calculated from the following formula: […]

blood-brain barrier [4] = assay: Rat cranial window model, clearance of FDX 10 kDa; type: in vivo; settings: LPA 10 uM
Protocol: Cerebral vascular permeability was also evaluated using the rat cranial window model. For these studies male Wistar-Furth rats (n=15) were anesthetized (Inactin; thiobutabarbital 100 mg/kg ip), and a tracheotomy was performed. The rats were mechanically ventilated with room air and supplemental oxygen. A catheter was placed in the femoral artery for the measurement of systemic blood pressure and to obtain blood samples. A catheter was placed in the femoral vein for injection of intravascular tracer FDX 10 10a. […] Blood gases were also monitored and maintained within normal limits. […]
Permeability of the BBB was evaluated by calculating the clearance of FDX 10 kDa (10^−6 ml/s) from the area of parietal cortex exposed by the craniotomy, as previously described (Mayhan and Heistad, Am J. Physiol, 248: H712-H718, 1985; Mayhan, Brain Research, 927: 144-152, 2002). Briefly, the suffusate fluid was collected in glass test tubes with the aide of a fraction collector, and the concentration of FDX in the suffusate fluid during topical application of vehicle (saline) or LPA (10 μM) was determined using a spectrofluorometer. […] The clearance of 1010a FDX was calculated by multiplying the suffusate-to-plasma concentration by the suffusate flow rate (Mayhan and Heistad, Am J. Physiol, 248: H712-H718, 1985; Mayhan, Brain Research, 927: 144-152, 2002). […]

blood-brain barrier [5] = assay: In vivo permeability study, 3H-methotrexate tissue distribution in mice; set-up: species or system mouse
Protocol: (§2) FIG. 11. Bar graph showing 20 fold increase in ^3H-methotrexate uptake in mouse brain when LPA is present. Adult female Balb/c mice were administered radiolabeled methotrexate via bolus tail vein injection. The radiolabeled methotrexate was given either alone, or in the presence of 1.0 mg/kg LPA. Fifteen minutes after injection of radiolabeled methotrexate, the mice were sacrificed and blood and tissue (brain, lung, kidney and liver) samples removed. The brain was homogenized and the cerebral microvascular endothelial cells were separated from the rest of the brain via centrifugation in 13% dextran solution at 7500×g for 15 minutes. Samples of the brain parachyma were removed for determination of radioactivity along with other tissue homogenates. Under normal conditions less than 1% of the injected dose of radiolabeled methotrexate was delivered to the brain. However, in the presence of LPA, an approximately 20-fold enhancement of radiolabeled methotrexate delivery to the brain was observed.
(§3) Female Balb/c mice were used to assess BBB permeability in vivo. Mice received a bolus injection (ml/kg) of ^3H-methotrexate (4 uCi total activity) via the tail vein. The radiolabeled methotrexate was given in combination with either LPA (1 mg/kg) or vehicle (0.25% bovine serum albumin in phosphate buffered saline solution). Fifteen minutes after the injection of methotrexate, mice were anesthetized using intraperitoneal injection of ketamine and xylazine and a sample of blood was removed by cardiac puncture. Following the blood sample, mice were sacrificed and various tissues including, the brain, lung, liver and kidney, were removed for determination of 3H-methotrexate. Blood samples were spun for 8-10 minutes and 100 uL of plasma was collected. Tissue samples were weighed and homogenized with double the volume of tissue solubilizing agent (Scintigest™, Fisher Scientific). A 200 uL aliquot of the tissue homogenate was used to analyse the tissue samples. The samples were then mixed with Ultima Gold™ (Perkin Elmer) scintillation cocktail and analysed by liquid scintillation counter (Perkin Elmer) to determine the amount of ^3H-methotrexate present in the blood and tissue. The distribution of ^3H-methotrexate was based on the ratio of the radioactivity in the tissue versus the radioactivity in the plasma sample.

[6] = as above; set-up: species or system mouse; settings: female, Balb/c, mouse, brain / plasma, intravenous, 4 uCi total activity; methotrexate alone; 15 minutes after systemic administration; read-out: brain to plasma ratio of 3H-methotrexate in control mice
Protocol: as §2, §3

[7] = LPA 1 mg/kg i.v., 15 minutes, mice

CCCCCCCCCCCCC/C=C/[C@@H](O)[C@@H](N)COP(=O)(O)O [S1P, sphingosine 1-phosphate]
effect on BBMEC permeability in words ([1]; FDX-3000): equally as robust decrease in permeability; also recorded: decreased the permeability of FDX-3000; also recorded: concentration-dependent decreases
onset of permeability effect ([1]; BBMEC): ≤ 15 min
effect on the BBMEC permeability ([1]; S1P 0.1 uM): no significant effect
decrease in permeability of BBMEC ([1]; S1P 1 and 10 uM): 2 fold
effect of S1P on the permeability increase induced by LPA ([1]; S1P (10 uM) co-administered with LPA, BBMEC): completely overcome; also recorded: totally prevented; also recorded: abolished
effect of S1P on the permeability effect of ethanol ([1]; ethanol 50 mM and S1P, BBMEC): abolished; also recorded: decrease in permeability
effect of S1P on the permeability effect of horse serum ([1]; horse serum 10% and S1P, BBMEC): abolished; also recorded: decreased the permeability effect
duration of permeability effect ([1]; in the presence of S1P): 90 min
decrease in BBMEC monolayer permeability, applied apically or basolaterally (BBMEC monolayers; S1P 10 uM): approximately 2 fold
effect of S1P on the LPA-induced increase in rhodamine 800 brain distribution (blood-brain barrier [2]; LPA 1.0 mg/kg and S1P 0.1 mg/kg i.v.): prevents the increases

lysophosphatidic acid [LPA]
effect on BBMEC permeability in words ([1]; FDX-3000): concentration-dependent increase
onset of permeability effect ([1]; BBMEC): ≤ 15 min
increase in the permeability of BBMEC monolayers ([1]; LPA 10 uM, FDX-3000): 2 fold
increase in monolayer permeability ([1]; LPA 0.1 and 1 uM, FDX-3000, BBMEC): ~1.5 fold
increase in permeability following apical or basolateral application (BBMEC monolayers; LPA 10 uM, BBMEC): 2 fold
effect on porcine BMEC permeability in words [3]: concentration-dependent increase
onset of effect on cerebral vascular permeability (blood-brain barrier [4]): rapid in onset (within minutes)
reversal of permeability after LPA was stopped (blood-brain barrier [4]): returned to baseline levels extremely rapidly; also recorded: equally rapid in returning to baseline permeability
effect on 3H-methotrexate accumulation in liver or kidney (blood-brain barrier [5]; [7]): no significant increases; also recorded: no effect
increase in 3H-methotrexate accumulation in the lung (blood-brain barrier [5]; [7]): approximately 3 fold
brain to plasma ratio of 3H-methotrexate with LPA (blood-brain barrier [5]; LPA 1 mg/kg, 15 minutes after administration, mice): approximately 20%
onset of action in the mouse (blood-brain barrier [5]; LPA, mouse): ≤ 15 min
rhodamine 800 delivery to the brain with LPA (blood-brain barrier [2]; LPA 1.0 mg/kg i.v. with rhodamine 800 3.2 μmol/kg): substantially greater rhodamine 800 was delivered to the brain

CCO [Ethanol, ethanol, reference compound]
increase in BBMEC monolayer permeability ([1]; ethanol 50 mM): 3 fold

CN(Cc1cnc2nc(N)nc(N)c2n1)c1ccc(C(=O)N[C@@H](CCC(=O)O)C(=O)O)cc1 [^3H-methotrexate, methotrexate, reference compound]
Kp at 15 min [6]: ~0.02
share of the injected dose delivered to the brain (blood-brain barrier [5]; radiolabeled methotrexate alone, normal conditions, mice): less than 1%

Source: patent US20110124604A1, “PHOSPHOLIPID RECEPTORS AS TARGETS FOR ENHANCING DRUG PERMEABILITY TO SELECTED TISSUES” (priority 2006, published 2011)
